Experimental data taken from PubChem BioAssay AID1963982 (Molecular Pharmacology Branch, DTP, NCI, 2024).
One block for each compound: values may come before it.

Test system: 313798-341-R-J2-PDC spheroids, viability
Assay: Anticancer human tumor 313798-341-R-J2-PDC patient-derived cervical squamous cell carcinoma cell line growth inhibition [PI3K]
Settings: spheroids with HUVEC and MSC; for IC50: curve of first compound; for viability, T/C: stronger effect = lower value
From the text: Combinatorial screen of targeted agents with the PI3K inhibitors inavolisib, alpelisib, duvelisib, and copanlisib in multi-cell type tumor spheroids
A high-throughput screen of multi-cell type tumor spheroids was designed to identify active combinations of targeted small molecules and PI3K pathway inhibitors. Complex spheroids include a stromal component modeled by human endothelial cells (HUVEC) and fibroblasts modeled by human mesenchymal stem cells (MSCs). The concentration ranges selected for each drug and investigational agent were based upon clinically achievable concentrations if the clinical Cmax of the agent was known.
Compounds. The drugs and investigational agents: inavolisib (NSC800729), alpelisib (NSC765974), duvelisib (NSC772469), copanlisib (NSC816437), ipatasertib (NSC767898), afuresertib (NSC778305), talazoparib (NSC767125), sapanisertib (NSC764658), selumetinib (NSC741078), tovorafenib (DAY101, NSC766906), vemurafenib (NSC761431), ravoxertinib (NSC781343), sotorasib (NSC818433), MRTX1133 (NSC 836407), abemaciclib (NSC 768073), palbociclib (NSC758247), venetoclax (NSC 766270), SY5609 (NSC837396), enzalutamide (NSC755605), and darolutamide (NSC825331), were obtained from the National Cancer Institute (NCI) Developmental Therapeutics Program Chemical Repository. The FDA-approved anticancer drug set is available from the NCI Developmental Therapeutics Program. […] The stock solutions were prepared in dimethyl sulfoxide (DMSO, Sigma-Aldrich, St. Louis, MO, cat. D2650) at 800-fold the tested concentration and stored at -70 degrees C prior to their use. All drugs and investigational agents were tested over a range starting from a high concentration at or near the clinical Cmax and decreasing in half-log increments. If the clinical Cmax for an agent had not been determined, the highest concentration tested was 10 microM.
Cell Culture. All cells were maintained in an incubator at 37 degrees C and 5% CO2 with 95% humidity. The PDC lines were cultured according to standard operating procedures established by the NCI PDMR (https://pdmr.cancer.gov/sops/default.htm). All PDCs were thawed and cultured in Matrigel-coated flasks prepared with a working solution of 1X Ham's F-12 nutrient mix, without supplementation (Invitrogen, Waltham, MA, cat. 11765054), 100 U/mL penicillin-streptomycin (Invitrogen, cat. 15140122), and 2.5% Matrigel (Corning Inc., Corning, NY, cat. 354248) for the first three passages. The 354836-022-R-J1-PDC, 475296-252-R-J1-PDC, and 997726-040-R-J2-PDC lines were cultured in 6A media, which includes advanced DMEM/F-12 (Thermo Fisher Scientific, cat. 12634028), 10 mM HEPES (Thermo Fisher Scientific, cat. 15630080), 1X GlutaMAX supplement (Thermo Fisher Scientific, cat. 35050061), 0.1 mg/mL primocin (InvivoGen, San Diego, CA, cat. ant-pm-2), 10% defined fetal bovine serum, heat inactivated (HyClone Laboratories Inc., Logan, UT, cat. SH30070.03HI), 50% L-WRN conditioned media (ATCC, cat. CRL-3276), 1.25 mM N-Acetyl-L-cysteine (Sigma-Aldrich, cat. A9165), 10 mM nicotinamide (Sigma-Aldrich, cat. N0636), 1X B-27 supplement (Thermo Fisher Scientific, cat. 17504044), 1X N-2 supplement (Thermo Fisher Scientific, cat. 17502048), and 10 microM Y-27632 dihydrochloride (Tocris Bioscience, Bristol, United Kingdom, cat. 1254). The 624824-186-R-J2-PDC line was cultured in 6C/Colon 1B media, which includes all 6A media components plus 50 ng/mL human EGF recombinant protein (Thermo Fisher Scientific, cat. PHG0311). […]

[1] = second compound 0.0316 µM, first compound 0.000316 µM
[2] = second compound 0.0316 µM, first compound 0.001 µM
[3] = second compound 0.0316 µM, first compound 0.00316 µM
[4] = second compound 0.0316 µM, first compound 0.01 µM
[5] = second compound 0.0316 µM, first compound 0.0316 µM
[6] = second compound 0.0316 µM, first compound 0.1 µM
[7] = second compound 0.1 µM, first compound 0.000316 µM
[8] = second compound 0.1 µM, first compound 0.001 µM
[9] = second compound 0.1 µM, first compound 0.00316 µM
[10] = second compound 0.1 µM, first compound 0.01 µM
[11] = second compound 0.1 µM, first compound 0.0316 µM
[12] = second compound 0.1 µM, first compound 0.1 µM
[13] = second compound 0.316 µM, first compound 0.000316 µM
[14] = second compound 0.316 µM, first compound 0.001 µM
[15] = second compound 0.316 µM, first compound 0.00316 µM
[16] = second compound 0.316 µM, first compound 0.01 µM
[17] = second compound 0.316 µM, first compound 0.0316 µM
[18] = second compound 0.316 µM, first compound 0.1 µM
[19] = second compound 1 µM, first compound 0.000316 µM
[20] = second compound 1 µM, first compound 0.001 µM
[21] = second compound 1 µM, first compound 0.00316 µM
[22] = second compound 1 µM, first compound 0.01 µM
[23] = second compound 1 µM, first compound 0.0316 µM
[24] = second compound 1 µM, first compound 0.1 µM
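Note: spheroids exposed to compounds for seven days.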
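Throughout, for viability, T/C: 100% = DMSO vehicle control viability.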

- IC50 (second compound 0.0316 µM): > 100 nM
- IC50 (second compound 0.1 µM): > 100 nM
- IC50 (second compound 0.316 µM): > 100 nM
- IC50 (second compound 1 µM): > 100 nM
- IC50 (second compound 3.16 µM): > 100 nM
- IC50 (second compound 10 µM): < 0.316 nM
SMILES: Cn1ncnc1[C@H]1c2n[nH]c(=O)c3cc(F)cc(c23)N[C@@H]1c1ccc(F)cc1 + Cc1nc(NC(=O)N2CCCC2C(N)=O)sc1-c1ccnc(C(C)(C)C(F)(F)F)c1
- viability, T/C [1]: 112%
- viability, T/C [2]: 90%
- viability, T/C [3]: 97.6%
- viability, T/C [4]: 96.1%
- viability, T/C [5]: 93.9%
- viability, T/C [6]: 95.7%
- viability, T/C [7]: 98.7%
- viability, T/C [8]: 103%
- viability, T/C [9]: 98.2%
- viability, T/C [10]: 97.8%
- viability, T/C [11]: 92.6%
- viability, T/C [12]: 87%
- viability, T/C [13]: 97.7%
- viability, T/C [14]: 100%
- viability, T/C [15]: 110%
- viability, T/C [16]: 90.7%
- viability, T/C [17]: 102%
- viability, T/C [18]: 80.8%
- viability, T/C [19]: 92.2%
- viability, T/C [20]: 86.3%
- viability, T/C [21]: 82.9%
- viability, T/C [22]: 72.5%
- viability, T/C [23]: 79.1%
- viability, T/C [24]: 71.5%
- viability, T/C (second compound 3.16 µM, first compound 0.000316 µM): 59.6%
- viability, T/C (second compound 3.16 µM, first compound 0.001 µM): 61%
- viability, T/C (second compound 3.16 µM, first compound 0.00316 µM): 59%
- viability, T/C (second compound 3.16 µM, first compound 0.01 µM): 54.9%
- viability, T/C (second compound 3.16 µM, first compound 0.0316 µM): 59.6%
- viability, T/C (second compound 3.16 µM, first compound 0.1 µM): 49.4%
- viability, T/C (second compound 10 µM, first compound 0.000316 µM): 35.9%
- viability, T/C (second compound 10 µM, first compound 0.001 µM): 36.8%
- viability, T/C (second compound 10 µM, first compound 0.00316 µM): 38.2%
- viability, T/C (second compound 10 µM, first compound 0.01 µM): 34.2%
- viability, T/C (second compound 10 µM, first compound 0.0316 µM): 33.2%
- viability, T/C (second compound 10 µM, first compound 0.1 µM): 28.3%

- IC50 (second compound 0.00316 µM): > 100 nM
- IC50 (second compound 0.01 µM): > 100 nM
- IC50 (second compound 0.0316 µM): > 100 nM
- IC50 (second compound 0.1 µM): < 0.316 nM
- IC50 (second compound 0.316 µM): < 0.316 nM
- IC50 (second compound 1 µM): < 0.316 nM
SMILES: Cn1ncnc1[C@H]1c2n[nH]c(=O)c3cc(F)cc(c23)N[C@@H]1c1ccc(F)cc1 + COc1c(OCCCN2CCOCC2)ccc2c3n(c(=NC(=O)c4cnc(N)nc4)nc12)CCN3
- viability, T/C (second compound 0.00316 µM, first compound 0.000316 µM): 97.5%
- viability, T/C (second compound 0.00316 µM, first compound 0.001 µM): 95.9%
- viability, T/C (second compound 0.00316 µM, first compound 0.00316 µM): 107%
- viability, T/C (second compound 0.00316 µM, first compound 0.01 µM): 111%
- viability, T/C (second compound 0.00316 µM, first compound 0.0316 µM): 97.9%
- viability, T/C (second compound 0.00316 µM, first compound 0.1 µM): 93.1%
- viability, T/C (second compound 0.01 µM, first compound 0.000316 µM): 106%
- viability, T/C (second compound 0.01 µM, first compound 0.001 µM): 107%
- viability, T/C (second compound 0.01 µM, first compound 0.00316 µM): 99%
- viability, T/C (second compound 0.01 µM, first compound 0.01 µM): 89.6%
- viability, T/C (second compound 0.01 µM, first compound 0.0316 µM): 87.9%
- viability, T/C (second compound 0.01 µM, first compound 0.1 µM): 87.3%
- viability, T/C [1]: 68.4%
- viability, T/C [2]: 97.1%
- viability, T/C [3]: 75.8%
- viability, T/C [4]: 71.5%
- viability, T/C [5]: 64.2%
- viability, T/C [6]: 65.1%
- viability, T/C [7]: 39.6%
- viability, T/C [8]: 49.8%
- viability, T/C [9]: 46.6%
- viability, T/C [10]: 43.6%
- viability, T/C [11]: 42.4%
- viability, T/C [12]: 37.1%
- viability, T/C [13]: 17.3%
- viability, T/C [14]: 18.4%
- viability, T/C [15]: 15.1%
- viability, T/C [16]: 15.7%
- viability, T/C [17]: 12.8%
- viability, T/C [18]: 15.7%
- viability, T/C [19]: 11.8%
- viability, T/C [20]: 14.1%
- viability, T/C [21]: 14.5%
- viability, T/C [22]: 12.5%
- viability, T/C [23]: 13.9%
- viability, T/C [24]: 10.1%
